Reference: patent US12239132B2, “Compounds and methods for increasing soil nutrient availability” (SOUND AGRICULTURE COMPANY, priority 2018, dated 2025)

Legend:
[1] = system: innate soil microbes; assay: Phosphate solubilization in commercial potting soil, sterile vs non-sterile; assay type: cell-based; settings: 12 days
Procedure: In some aspects, a compound disclosed herein, e.g., AB09, stimulates phosphate solubilization of innate soil microbes. The induced phosphate solubilization enhancement was tested for in plant-free soil, which contains an innate diverse microflora of bacteria and fungi. Soil was evenly distributed into pots, half of which were pressure-sterilized in an autoclave. Half of the sterile and half of the non-sterile soil received a treatment. Control pots received a mock treatment. Pots were covered, incubated at room temperature, and orthophosphate levels were measured after twelve days. […] Three replicates of 20 mg air dried soil were measured from each pot and placed into 1.5 mL eppendorf tubes. […] In some instances, disclosed herein are measured phosphate levels at 12 days post treatment. […]
The effect of AB09 on a soil microbiome's innate ability to solubilize phosphorus was tested using commercially available soil, which contains a diverse microflora of bacteria. […] After 12 days of incubation soil phosphorus was extracted using the Bray-1P method and quantified using the malachite green assay.
Phosphate levels at 12 days post treatment. […] Orthophosphate was measured using the malachite-green phosphate method.
Orthophosphate was measured using the malachite-green phosphate method (BioAssay Systems Malachite Green Phosphate Assay Kit Catalog No: POMG-25H). […] Data are quantified on a plate reader at 620 nm. […]

[2] = system: soil consortia cultures; assay: Acetylene reduction method in soil consortia nitrogen free cultures; assay type: cell-based; settings: 25 ug/mL, Burks-N, 72 h, control nd
Procedure: One flask culture per soil received an AB09 treatment and the other received a control treatment of water. After 72 h of growth, 5 mL of each culture were analyzed for nitrogenase activity using the acetylene reduction method. […] Soil from agricultural areas was air dried and sieved with a 2 mm sieve. Five hundred milligrams of dried, sieved soil was added to 50 mL of Burks-N media in a 250 mL baffled flask. AB09 was added to 25 ug/mL and water was added in equivalent amounts for controls. Flasks were topped with a foam plug and incubated at 30 C, shaking at 100 rpm. After 72 h, 5 mL of the soil culture was transferred to 20 mL autosampler vials and analyzed for ethylene gas with the acetylene reduction technique and GC/MS as described as above.

CC1=CC(Oc2c(C)occc2=O)OC1=O (centres unmarked) [AB09, maltol lactone]
level of orthophosphate in non-sterile soil ([1]; 24 ug/mL in 1% DMSO, 25 mL per pot, Bray-P1 extraction, vs non-sterile control): significantly increased | AB09-induced phosphorus enhancement in sterile soil ([1]; autoclaved soil, 24 ug/mL): not observed | % Ethylene (nitrogenase activity) ([2]; Alpha soil): 14.5% | % Ethylene (nitrogenase activity) ([2]; Bennet soil): 0.7% | % Ethylene (nitrogenase activity) ([2]; U of I soil): 4.2%
